Each molecule was assayed on Staphylococcus aureus (assay: Inhibition of Staphylococcus aureus caseinolytic protein protease using fluorogenic substrate assessed as residual activity at 10 uM after 15 mins).

| Activity [%] | SMILES |
| --- | --- |
| 1 | CCCCCCCCCC[C@@H]1C(=O)O[C@H]1CCCCCSCCCN(C)C |
| 5 | CCCCCCCCCC[C@@H]1C(=O)O[C@H]1CCCCCS(=O)(=O)CCCN(C)C |
| 40 | CCCCCCCCCC[C@@H]1C(=O)O[C@H]1CCCSCCCN(C)C |
| 9 | CCCCCCCCCC[C@H]1C(=O)O[C@@H]1CCCCCS(=O)(=O)CCC[N+](C)(C)C |
| 11 | CCCCCCCCCC[C@H]1C(=O)O[C@@H]1CCSCCCN(C)C |
| 100 | C#CCCCOC(=O)NCCCCC |
| 1 | CCCCCCCCCC[C@@H]1C(=O)O[C@H]1CCS(=O)(=O)CCCN(C)C |
| 1 | CCCCCCCCCC[C@@H]1C(=O)O[C@H]1CCCCCS(=O)(=O)CCC[N+](C)(C)C |
| 101 | C#CCCCOC(=O)NCCCCCCCC=C |
| 95 | C#CCCC[C@@H]1OC(=O)[C@H]1CCCCCCCCCCCC |
| 8 | CCCCCCCCCC[C@H]1C(=O)O[C@@H]1CCCS(=O)(=O)CCCN(C)C |
| 1 | CCCCCCCCCC[C@@H]1C(=O)O[C@H]1CCSCCCN(C)C |
| 10 | CCCCCCCCCC[C@H]1C(=O)O[C@@H]1CCCCCS(=O)(=O)CCCN(C)C |
| 105 | C=CCCCCCCC[C@H]1C(=O)O[C@@H]1CCCCCCCCCCCNC(=O)OC(C)(C)C |
| 108 | O=C1OC[C@H]1CCc1ccccc1 |
| 95 | C=CCCCCCCCC[C@H]1OC(=O)[C@@H]1CCCCCCCCCNC(=O)OC(C)(C)C |

| Activity [%] | SMILES |
| --- | --- |
| 96 | C=CCCCCCCCCC(=O)OC |
| 103 | C=CCCCCCCCCC(=O)OC(C)(C)C |
| 30 | C=CCCCCCCC[C@H]1C(=O)O[C@@H]1CCCCCNC(=O)c1ccc(N(C)C)cc1 |
| 0 | CCCCCCCCCC[C@@H]1C(=O)O[C@H]1CCCCSCCCN(C)C |
| 0 | CCCCCCCCCC[C@@H]1C(=O)O[C@H]1CCCCS(=O)(=O)CCCN(C)C |
| 37 | CCCCCCCCCC[C@H]1C(=O)O[C@@H]1CCS(=O)(=O)CCCN(C)C |
| 9 | CCCCCCCCCC[C@H]1C(=O)O[C@@H]1CCCCS(=O)(=O)CCC[N+](C)(C)C |
| 0 | CCCCCCCCCC[C@@H]1C(=O)O[C@H]1CCCS(=O)(=O)CCC[N+](C)(C)C |
| 108 | O=C1OC[C@@H]1CCc1ccccc1 |
| 0 | CCCCCCCCCC[C@@H]1C(=O)O[C@H]1CCCS(=O)(=O)CCCN(C)C |
| 13 | CCCCCCCCCC[C@H]1C(=O)O[C@@H]1CCCCS(=O)(=O)CCCN(C)C |
| 95 | CCCCCCCCCCCC[C@H]1C(=O)O[C@@H]1CCc1ccccc1 |
| 7 | CCCCCCCCCC[C@H]1C(=O)O[C@@H]1CCCS(=O)(=O)CCC[N+](C)(C)C |
| 70 | C=CCCCCCCC[C@H]1C(=O)O[C@@H]1CCc1ccccc1 |
| 36 | CCCCCCCCCC[C@@H]1C(=O)O[C@H]1CCCCS(=O)(=O)CCC[N+](C)(C)C |
| 0 | C=CCCCCCCC[C@H]1C(=O)O[C@@H]1CCc1cccnc1 |
